Data as given in patent publication US7371766B2, “Curcumin analogs with anti-tumor and anti-angiogenic properties” (Emory University, priority 1999, dated 2008).

Assays:
CCRF-CEM = conditions: read-out: Median Growth Inhibitory Concentration (GI50), Leukemia, 48 hours
MOLT-4 = conditions: read-out: Median Growth Inhibitory Concentration (GI50); MOLT-4, Leukemia; 48 hours
RPMI-8226 = conditions: read-out: Median Growth Inhibitory Concentration (GI50); RPMI-8226, Leukemia; 48 hours
SR = conditions: read-out: Median Growth Inhibitory Concentration (GI50), Leukemia, 48 hours
HOP-62 = conditions: read-out: Median Growth Inhibitory Concentration (GI50); HOP-62, Non-Small Cell Lung Cancer; 48 hours
NCI-H226 = conditions: read-out: Median Growth Inhibitory Concentration (GI50); NCI-H226, Non-Small Cell Lung Cancer; 48 hours
COLO 205 = conditions: read-out: Median Growth Inhibitory Concentration (GI50); COLO 205, Colon Cancer; 48 hours
HCT-116 = conditions: read-out: Median Growth Inhibitory Concentration (GI50); HCT-116, Colon Cancer; 48 hours
HCT-15 = conditions: read-out: Median Growth Inhibitory Concentration (GI50); HCT-15, Colon Cancer; 48 hours
KM12 = conditions: read-out: Median Growth Inhibitory Concentration (GI50); KM12, Colon Cancer; 48 hours
SF-268 = conditions: read-out: Median Growth Inhibitory Concentration (GI50); SF-268, CNS Cancer; 48 hours
SF-539 = conditions: read-out: Median Growth Inhibitory Concentration (GI50); SF-539, CNS Cancer; 48 hours
SNB-75 = conditions: read-out: Median Growth Inhibitory Concentration (GI50); SNB-75, CNS Cancer; 48 hours
SK-MEL-28 = conditions: read-out: Median Growth Inhibitory Concentration (GI50); SK-MEL-28, Melanoma; 48 hours
SK-MEL-5 = conditions: read-out: Median Growth Inhibitory Concentration (GI50); SK-MEL-5, Melanoma; 48 hours
OVCAR-3 = conditions: read-out: Median Growth Inhibitory Concentration (GI50); OVCAR-3, Ovarian Cancer; 48 hours
OVCAR-8 = conditions: read-out: Median Growth Inhibitory Concentration (GI50); OVCAR-8, Ovarian Cancer; 48 hours
SK-OV-3 = conditions: read-out: Median Growth Inhibitory Concentration (GI50); SK-OV-3, Ovarian Cancer; 48 hours
786-0 = conditions: read-out: Median Growth Inhibitory Concentration (GI50); 786-0, Renal Cancer; 48 hours
ACHN = conditions: read-out: Median Growth Inhibitory Concentration (GI50), Renal Cancer, 48 hours
CAKI-1 = conditions: read-out: Median Growth Inhibitory Concentration (GI50); CAKI-1, Renal Cancer; 48 hours
RXF 393 = conditions: read-out: Median Growth Inhibitory Concentration (GI50); RXF 393, Renal Cancer; 48 hours
SN12C = conditions: read-out: Median Growth Inhibitory Concentration (GI50), Renal Cancer, 48 hours
UO-31 = conditions: read-out: Median Growth Inhibitory Concentration (GI50); UO-31, Renal Cancer; 48 hours
MDA-MB-435 = conditions: read-out: Median Growth Inhibitory Concentration (GI50); MDA-MB-435, Breast Cancer; 48 hours
MDA-N = conditions: read-out: Median Growth Inhibitory Concentration (GI50), Breast Cancer, 48 hours
BT-549 = conditions: read-out: Median Growth Inhibitory Concentration (GI50); BT-549, Breast Cancer; 48 hours

Molecule | GI50 (CCRF-CEM) [µM] | GI50 (MOLT-4) [µM] | GI50 (RPMI-8226) [µM] | GI50 (SR) [µM] | GI50 (HOP-62) [µM] | GI50 (NCI-H226) [µM] | GI50 (COLO 205) [µM] | GI50 (HCT-116) [µM] | GI50 (HCT-15) [µM] | GI50 (KM12) [µM] | GI50 (SF-268) [µM] | GI50 (SF-539) [µM] | GI50 (SNB-75) [µM] | GI50 (SK-MEL-28) [µM] | GI50 (SK-MEL-5) [µM] | GI50 (OVCAR-3) [µM] | GI50 (OVCAR-8) [µM] | GI50 (SK-OV-3) [µM] | GI50 (786-0) [µM] | GI50 (ACHN) [µM] | other results
3,5-Bis(2-hydroxybenzylidene)-sulfone [EF11] | 22 | 19.7 | 18.2 | 21.5 | 83.3 | > 100 | 39.6 | 36.8 | 42.6 | 19.1 | 24.6 | 39.9 | 20.3 | 42.5 | 23.2 | 41.8 | 47.1 | > 100 | 41.3 | 41 | GI50 (CAKI-1): 29.2 µM; GI50 (RXF 393): 39 µM; GI50 (SN12C): 34.2 µM; GI50 (UO-31): 28.4 µM; GI50 (MDA-MB-435): 31.4 µM; GI50 (MDA-N): 36.9 µM; GI50 (BT-549): 32.9 µM
N.N.[Cl][Pt][Cl] [Cisplatin, reference compound] | 0.2 | 0.3 | 0.5 | 0.1 | 0.3 | 0.8 | 4 | 1.3 | 1.6 | 2 | 0.2 | 0.4 | 0.6 | 0.8 | 0.5 | 1 | 1 | 1.3 | 0.3 | 0.5 | GI50 (CAKI-1): 0.3 µM; GI50 (RXF 393): 0.8 µM; GI50 (SN12C): 1 µM; GI50 (UO-31): 0.8 µM; GI50 (MDA-MB-435): 1.6 µM; GI50 (MDA-N): 0.8 µM; GI50 (BT-549): 1.3 µM
